Source: ChEMBL document CHEMBL4346735, “Discovery and pharmacological evaluation of indole derivatives as potent and selective RORγt inverse agonist for multiple autoimmune conditions” (Bioorg Med Chem Lett, 2019)
≈ marks a conversion by molar mass, not a printed value.

Target: T1, Nuclear receptor ROR-gamma (Homo sapiens, UniProt P51449)
T1 sequence (P51449 whole entry): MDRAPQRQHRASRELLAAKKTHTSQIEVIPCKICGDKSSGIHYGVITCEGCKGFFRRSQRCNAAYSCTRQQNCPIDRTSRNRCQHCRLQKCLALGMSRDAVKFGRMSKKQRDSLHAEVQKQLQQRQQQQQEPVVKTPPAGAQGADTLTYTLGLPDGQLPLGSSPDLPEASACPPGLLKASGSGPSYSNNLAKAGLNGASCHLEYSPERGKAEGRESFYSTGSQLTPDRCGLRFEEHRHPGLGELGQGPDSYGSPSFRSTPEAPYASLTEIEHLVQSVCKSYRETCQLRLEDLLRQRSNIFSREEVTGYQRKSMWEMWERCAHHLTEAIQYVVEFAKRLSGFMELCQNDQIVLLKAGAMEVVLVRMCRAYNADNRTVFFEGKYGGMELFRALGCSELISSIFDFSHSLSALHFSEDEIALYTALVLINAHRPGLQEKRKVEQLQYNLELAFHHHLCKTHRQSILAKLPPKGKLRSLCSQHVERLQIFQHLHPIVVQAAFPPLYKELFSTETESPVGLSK
Assay: Transactivation of recombinant GAL4-DBD fused RORgammat LBD (unknown origin) expressed in HEK293T cells incubated for 18 to 24 hrs by dual-Glo luciferase assay
Format: cell-based
Details: not given

| SMILES | IC50 [nM] |
| --- | --- |
| O=C(O)c1ccc(-n2cc(C(=O)c3c(Cl)cccc3Cl)c3ccccc32)c(C(F)(F)F)c1 | > 3000 |
| O=C(O)c1ccc(-n2cc(C(=O)c3c(Cl)cccc3Cl)c3ccccc32)cc1O | 5 |
| O=C(O)c1ccc(-n2cc(C(=O)c3c(Cl)cccc3Cl)c3cccc(Cl)c32)cc1 | 70 |
| O=C(O)c1cc(F)c(-n2cc(C(=O)c3c(Cl)cccc3Cl)c3ccccc32)c(F)c1 | 10 |
| O=C(O)c1ccc(-n2cc(C(=O)c3c(Cl)cccc3Cl)c3cccnc32)cc1 | 104 |
| Cc1cccc(Cl)c1C(=O)c1cn(-c2ccc(C(=O)O)cc2F)c2ncccc12 | 27 |

Target: Cytochrome P450 2D6 (Homo sapiens, UniProt P10635)
Assay: Inhibition of CYP2D6 in human liver microsomes using dextromethorphan as substrate preincubated for 5 mins followed by NADPH addition measured after 10 mins by LC-MS/MS analysis
Details: not given

Cytochrome P450 2D6, sequence (P10635 whole entry): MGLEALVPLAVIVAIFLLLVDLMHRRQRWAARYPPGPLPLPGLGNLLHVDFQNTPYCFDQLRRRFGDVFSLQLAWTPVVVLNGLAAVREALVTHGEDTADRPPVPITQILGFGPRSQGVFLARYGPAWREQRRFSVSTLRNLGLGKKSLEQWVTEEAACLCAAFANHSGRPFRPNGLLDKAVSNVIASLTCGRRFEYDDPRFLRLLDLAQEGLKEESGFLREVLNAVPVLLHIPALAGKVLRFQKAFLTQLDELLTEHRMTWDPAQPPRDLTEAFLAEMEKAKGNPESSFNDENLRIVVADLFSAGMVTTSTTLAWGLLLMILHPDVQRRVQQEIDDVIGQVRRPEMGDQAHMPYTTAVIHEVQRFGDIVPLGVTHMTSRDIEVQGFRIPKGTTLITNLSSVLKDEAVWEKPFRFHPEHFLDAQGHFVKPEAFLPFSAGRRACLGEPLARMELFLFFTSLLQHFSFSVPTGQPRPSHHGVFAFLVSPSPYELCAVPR

| SMILES | IC50 [µM] |
| --- | --- |
| O=C(O)c1ccc(-n2cc(C(=O)c3c(Cl)cccc3C(F)(F)F)c3ccccc32)cc1 | > 50 |

Target: T1, Nuclear receptor ROR-gamma
Assay: Inverse agonist activity at GST-tagged RORgammat LBD (unknown origin) using fluorescein-D22 co-activator peptide as substrate incubated for 1 hr by TR-FRET assay
Details: not given

| SMILES | IC50 [nM] |
| --- | --- |
| O=C(O)c1ccc(-n2cc(C(=O)c3c(Cl)cccc3Cl)c3cccnc32)cc1 | 20 |

Test system: not listed separately
Assay: Metabolic stability in human liver microsomes assessed as parent compound remaining at 1 uM preincubated for 5 mins followed by NADPH addition after 30 mins by LC-MS/MS analysis
Format: ADME, Microsome
Details: read-out: Stability

| SMILES | remaining at 0.5 h, 1 µM [%] |
| --- | --- |
| O=C(O)c1ccc(-n2cc(C(=O)c3c(Cl)cccc3Cl)c3cccc(F)c32)c(F)c1 | 65 |
| O=C(O)c1ccc(-n2cc(C(=O)c3c(Cl)cccc3Cl)c3ccccc32)c(C(F)(F)F)c1 | 99 |
| O=C(O)c1ccc(-n2cc(C(=O)c3c(Cl)cccc3Cl)c3ccccc32)cc1O | 68 |
| O=C(O)c1cc(F)c(-n2cc(C(=O)c3c(Cl)cccc3Cl)c3ccccc32)c(F)c1 | 94 |
| O=C(O)c1ccc(-n2cc(C(=O)c3c(Cl)cccc3Cl)c3cccnc32)cc1 | 100 |
| Cc1cccc(Cl)c1C(=O)c1cn(-c2ccc(C(=O)O)cc2F)c2ncccc12 | 88 |
| O=C(O)c1ccc(-n2cc(C(=O)c3c(Cl)cccc3C(F)(F)F)c3ccccc32)cc1 | 100 |

Test system: not listed separately
Assay: Solubility of the compound at pH 7.4
Details: buffer

| SMILES | solubility [µM] |
| --- | --- |
| O=C(O)c1ccc(-n2cc(C(=O)c3c(Cl)cccc3Cl)c3cccnc32)cc1 | 407 (≈ 167 µg/mL) |
| Cc1cccc(Cl)c1C(=O)c1cn(-c2ccc(C(=O)O)cc2F)c2ncccc12 | 1960 (≈ 803 µg/mL) |
| O=C([O-])c1ccc(-n2cc(C(=O)c3c(Cl)cccc3Cl)c3ccccc32)cc1.[Na+] | > 2000 |
| O=C(O)c1ccc(-n2cc(C(=O)c3c(Cl)cccc3C(F)(F)F)c3ccccc32)cc1 | 1470 (≈ 654 µg/mL) |

Test system: not listed separately
Assay: Solubility of the compound at pH 4
Details: buffer

| SMILES | solubility [µM] |
| --- | --- |
| O=C(O)c1ccc(-n2cc(C(=O)c3c(Cl)cccc3Cl)c3cccnc32)cc1 | 3 (≈ 1.23 µg/mL) |
| Cc1cccc(Cl)c1C(=O)c1cn(-c2ccc(C(=O)O)cc2F)c2ncccc12 | 1 (≈ 0.409 µg/mL) |
| O=C([O-])c1ccc(-n2cc(C(=O)c3c(Cl)cccc3Cl)c3ccccc32)cc1.[Na+] | 30 |
| O=C(O)c1ccc(-n2cc(C(=O)c3c(Cl)cccc3C(F)(F)F)c3ccccc32)cc1 | 1 (≈ 0.444 µg/mL) |

Test system: not listed separately
Assay: Metabolic stability in mouse liver microsomes assessed as parent compound remaining at 1 uM preincubated for 5 mins followed by NADPH addition after 30 mins by LC-MS/MS analysis
Format: ADME, Microsome
Details: read-out: Stability

| SMILES | remaining at 0.5 h, 1 µM [%] |
| --- | --- |
| O=C(O)c1ccc(-n2cc(C(=O)c3c(Cl)cccc3Cl)c3cccc(F)c32)c(F)c1 | 72 |
| O=C(O)c1ccc(-n2cc(C(=O)c3c(Cl)cccc3Cl)c3ccccc32)c(C(F)(F)F)c1 | 85 |
| O=C(O)c1ccc(-n2cc(C(=O)c3c(Cl)cccc3Cl)c3ccccc32)cc1O | 77 |
| O=C(O)c1ccc(-n2cc(C(=O)c3c(Cl)cccc3Cl)c3cccc(Cl)c32)cc1 | 76 |
| O=C(O)c1cc(F)c(-n2cc(C(=O)c3c(Cl)cccc3Cl)c3ccccc32)c(F)c1 | 75 |
| O=C(O)c1ccc(-n2cc(C(=O)c3c(Cl)cccc3Cl)c3cccnc32)cc1 | 100 |
| Cc1cccc(Cl)c1C(=O)c1cn(-c2ccc(C(=O)O)cc2F)c2ncccc12 | 93 |
| O=C(O)c1ccc(-n2cc(C(=O)c3c(Cl)cccc3C(F)(F)F)c3ccccc32)cc1 | 100 |

Target: T2, Cytochrome P450 1A2 (Homo sapiens, UniProt P05177)
T2 sequence (P05177 whole entry): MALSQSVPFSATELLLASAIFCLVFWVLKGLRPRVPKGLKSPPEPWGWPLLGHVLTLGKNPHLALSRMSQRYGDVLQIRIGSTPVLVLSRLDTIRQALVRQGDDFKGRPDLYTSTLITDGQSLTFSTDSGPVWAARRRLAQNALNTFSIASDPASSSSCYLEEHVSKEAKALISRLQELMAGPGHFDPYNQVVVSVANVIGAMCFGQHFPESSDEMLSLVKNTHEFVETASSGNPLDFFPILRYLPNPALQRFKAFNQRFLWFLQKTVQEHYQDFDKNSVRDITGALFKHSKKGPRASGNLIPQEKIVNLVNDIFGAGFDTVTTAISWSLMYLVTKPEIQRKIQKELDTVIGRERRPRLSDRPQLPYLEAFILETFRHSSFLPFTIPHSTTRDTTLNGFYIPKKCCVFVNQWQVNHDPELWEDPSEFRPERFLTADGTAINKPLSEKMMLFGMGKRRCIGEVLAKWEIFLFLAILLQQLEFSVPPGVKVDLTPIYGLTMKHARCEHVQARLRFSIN
Assay: Inhibition of CYP1A2 in human liver microsomes using phenacetin as substrate preincubated for 5 mins followed by NADPH addition measured after 10 mins by LC-MS/MS analysis
Details: not given

| SMILES | IC50 [µM] |
| --- | --- |
| Cc1cccc(Cl)c1C(=O)c1cn(-c2ccc(C(=O)O)cc2F)c2ncccc12 | > 50 |
| O=C(O)c1ccc(-n2cc(C(=O)c3c(Cl)cccc3C(F)(F)F)c3ccccc32)cc1 | > 25 |

Target: Cytochrome P450 2C9 (Homo sapiens, UniProt P11712)
Assay: Inhibition of CYP2C9 in human liver microsomes using diclofenac as substrate preincubated for 5 mins followed by NADPH addition measured after 10 mins by LC-MS/MS analysis
Details: not given

Cytochrome P450 2C9, sequence (P11712 whole entry): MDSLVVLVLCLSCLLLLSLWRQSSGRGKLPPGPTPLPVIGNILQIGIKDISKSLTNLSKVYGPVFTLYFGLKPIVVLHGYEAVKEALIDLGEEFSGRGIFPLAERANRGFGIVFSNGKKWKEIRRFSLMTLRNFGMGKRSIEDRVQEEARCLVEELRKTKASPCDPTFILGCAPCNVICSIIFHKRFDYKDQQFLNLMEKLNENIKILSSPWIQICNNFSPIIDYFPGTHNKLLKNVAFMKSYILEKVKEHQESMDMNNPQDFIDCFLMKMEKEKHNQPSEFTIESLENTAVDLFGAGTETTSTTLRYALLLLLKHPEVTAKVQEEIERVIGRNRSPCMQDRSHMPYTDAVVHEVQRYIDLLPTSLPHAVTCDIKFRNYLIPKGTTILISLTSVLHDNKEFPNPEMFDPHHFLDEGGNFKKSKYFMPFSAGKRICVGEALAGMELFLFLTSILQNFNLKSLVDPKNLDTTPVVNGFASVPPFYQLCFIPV

| SMILES | IC50 [µM] |
| --- | --- |
| O=C(O)c1ccc(-n2cc(C(=O)c3c(Cl)cccc3C(F)(F)F)c3ccccc32)cc1 | 16 |

Test system: not listed separately
Assay: Metabolic stability in rat liver microsomes assessed as parent compound remaining at 1 uM preincubated for 5 mins followed by NADPH addition after 30 mins by LC-MS/MS analysis
Format: ADME, Microsome
Details: read-out: Stability

| SMILES | remaining at 0.5 h, 1 µM [%] |
| --- | --- |
| O=C(O)c1ccc(-n2cc(C(=O)c3c(Cl)cccc3Cl)c3cccc(F)c32)c(F)c1 | 73 |
| O=C(O)c1ccc(-n2cc(C(=O)c3c(Cl)cccc3Cl)c3ccccc32)c(C(F)(F)F)c1 | 45 |
| O=C(O)c1ccc(-n2cc(C(=O)c3c(Cl)cccc3Cl)c3ccccc32)cc1O | 3 |
| O=C(O)c1cc(F)c(-n2cc(C(=O)c3c(Cl)cccc3Cl)c3ccccc32)c(F)c1 | 30 |
| O=C(O)c1ccc(-n2cc(C(=O)c3c(Cl)cccc3Cl)c3cccnc32)cc1 | 100 |
| Cc1cccc(Cl)c1C(=O)c1cn(-c2ccc(C(=O)O)cc2F)c2ncccc12 | 73 |
| O=C(O)c1ccc(-n2cc(C(=O)c3c(Cl)cccc3C(F)(F)F)c3ccccc32)cc1 | 95 |

Test system: not listed separately
Assay: Solubility of the compound at pH 2.1
Details: buffer

| SMILES | solubility [µM] |
| --- | --- |
| O=C(O)c1ccc(-n2cc(C(=O)c3c(Cl)cccc3Cl)c3cccnc32)cc1 | 1 (≈ 0.411 µg/mL) |
| Cc1cccc(Cl)c1C(=O)c1cn(-c2ccc(C(=O)O)cc2F)c2ncccc12 | < 1 |
| O=C([O-])c1ccc(-n2cc(C(=O)c3c(Cl)cccc3Cl)c3ccccc32)cc1.[Na+] | 52 |
| O=C(O)c1ccc(-n2cc(C(=O)c3c(Cl)cccc3C(F)(F)F)c3ccccc32)cc1 | 10 (≈ 4.44 µg/mL) |

Target: T3, Cytochrome P450 3A4 (Homo sapiens, UniProt P08684)
Assay: Inhibition of CYP3A4 in human liver microsomes using testosterone as substrate preincubated for 5 mins followed by NADPH addition measured after 10 mins by LC-MS/MS analysis
Details: not given

T3 sequence (P08684 whole entry): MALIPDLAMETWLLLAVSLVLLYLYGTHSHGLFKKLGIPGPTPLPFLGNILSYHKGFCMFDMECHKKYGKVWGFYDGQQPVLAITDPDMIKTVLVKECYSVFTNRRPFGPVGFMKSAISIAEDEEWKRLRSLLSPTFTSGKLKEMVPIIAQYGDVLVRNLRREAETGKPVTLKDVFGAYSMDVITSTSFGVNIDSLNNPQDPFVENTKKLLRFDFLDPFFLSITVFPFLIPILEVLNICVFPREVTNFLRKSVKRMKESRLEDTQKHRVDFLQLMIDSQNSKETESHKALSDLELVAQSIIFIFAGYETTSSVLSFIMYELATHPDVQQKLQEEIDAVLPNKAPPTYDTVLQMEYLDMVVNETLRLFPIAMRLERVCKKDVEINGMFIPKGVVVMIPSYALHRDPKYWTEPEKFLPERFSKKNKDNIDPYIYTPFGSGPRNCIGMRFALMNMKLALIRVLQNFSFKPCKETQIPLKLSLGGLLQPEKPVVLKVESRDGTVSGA

| SMILES | IC50 [µM] |
| --- | --- |
| Cc1cccc(Cl)c1C(=O)c1cn(-c2ccc(C(=O)O)cc2F)c2ncccc12 | > 50 |
| O=C(O)c1ccc(-n2cc(C(=O)c3c(Cl)cccc3C(F)(F)F)c3ccccc32)cc1 | > 50 |

Target: T3, Cytochrome P450 3A4
Assay: Inhibition of CYP3A4 in human liver microsomes using midazolam as substrate preincubated for 5 mins followed by NADPH addition measured after 10 mins by LC-MS/MS analysis
Details: not given

| SMILES | IC50 [µM] |
| --- | --- |
| O=C(O)c1ccc(-n2cc(C(=O)c3c(Cl)cccc3C(F)(F)F)c3ccccc32)cc1 | 37 |

Target: Cytochrome P450 2C19 (Homo sapiens, UniProt P33261)
Assay: Inhibition of CYP2C19 in human liver microsomes using (S)-mephenytoin as substrate preincubated for 5 mins followed by NADPH addition measured after 40 mins by LC-MS/MS analysis
Details: not given

Cytochrome P450 2C19, sequence (P33261 whole entry): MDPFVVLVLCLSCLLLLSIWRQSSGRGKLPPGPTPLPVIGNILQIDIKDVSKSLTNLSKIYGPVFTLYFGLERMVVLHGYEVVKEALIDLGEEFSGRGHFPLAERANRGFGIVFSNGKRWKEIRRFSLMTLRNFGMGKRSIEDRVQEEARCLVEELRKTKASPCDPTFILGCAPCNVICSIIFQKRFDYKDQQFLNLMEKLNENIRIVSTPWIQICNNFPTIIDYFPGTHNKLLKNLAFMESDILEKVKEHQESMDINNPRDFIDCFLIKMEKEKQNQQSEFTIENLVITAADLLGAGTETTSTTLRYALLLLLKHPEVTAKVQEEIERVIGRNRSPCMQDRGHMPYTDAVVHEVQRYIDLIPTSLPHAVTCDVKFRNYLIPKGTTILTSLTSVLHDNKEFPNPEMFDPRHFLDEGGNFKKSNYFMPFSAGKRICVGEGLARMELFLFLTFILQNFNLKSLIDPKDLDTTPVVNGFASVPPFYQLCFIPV

| SMILES | IC50 [µM] |
| --- | --- |
| Cc1cccc(Cl)c1C(=O)c1cn(-c2ccc(C(=O)O)cc2F)c2ncccc12 | > 50 |
| O=C(O)c1ccc(-n2cc(C(=O)c3c(Cl)cccc3C(F)(F)F)c3ccccc32)cc1 | > 50 |
